Test results taken from US10800815B2, “Kv1.3 potassium channel antagonists” (cgtx-Peptide Development GmbH, priority 2014, dated 2020).
Entries after “also recorded” stand apart in the source; their conditions may differ. Like-named read-outs stand apart in the source and are kept apart here.

What was measured:
[1] = Biochemical properties: isoelectric point; type: physicochemical
antibody formation = type: in vivo, rat
Method: FIG. 27 Analysis of mBSA specific antibodies. In the experimental groups H and I all animals have produced antibodies against the antigen mBSA during the immunization and AIA induction period.
The remaining swelling in treated animals was assumed to be due to antibody/antigen reactions. Therefore, immunized as well as naïve animals were tested for the presence of mBSA specific antibodies. Antibodies against mBSA could be detected in all immunized animals of groups H and I seven days after arthritis induction (FIG. 27).

[2] = biological target: T1, Kv1.3 channels expressed in Sf21 insect cells (Homo sapiens, UniProt P22001); experiment: Stability ex vivo in human blood plasma, read out as IC50 on Kv1.3 (Example 3); type: in vitro ADME
T1 construct: expressed in transfected cells; host or cells: Sf21 insect cells, baculovirus infection
T1 sequence (P22001 whole entry): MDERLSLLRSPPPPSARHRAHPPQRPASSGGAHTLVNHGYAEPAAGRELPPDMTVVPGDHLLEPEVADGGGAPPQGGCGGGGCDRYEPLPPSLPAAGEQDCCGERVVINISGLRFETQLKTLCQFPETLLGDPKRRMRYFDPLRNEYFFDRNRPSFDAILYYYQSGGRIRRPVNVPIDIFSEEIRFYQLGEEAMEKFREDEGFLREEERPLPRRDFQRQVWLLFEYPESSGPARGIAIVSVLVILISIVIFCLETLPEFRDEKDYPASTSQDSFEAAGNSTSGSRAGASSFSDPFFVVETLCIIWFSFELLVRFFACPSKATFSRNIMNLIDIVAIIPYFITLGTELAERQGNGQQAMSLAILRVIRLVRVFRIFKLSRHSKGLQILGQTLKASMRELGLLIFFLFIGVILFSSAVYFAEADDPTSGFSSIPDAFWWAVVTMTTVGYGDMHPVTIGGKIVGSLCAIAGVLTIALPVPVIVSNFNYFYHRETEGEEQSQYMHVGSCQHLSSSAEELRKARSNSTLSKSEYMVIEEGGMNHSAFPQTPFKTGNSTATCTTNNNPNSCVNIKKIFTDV
Method: The aim was to test the stability of the cgtx-544 peptide in blood plasma of mammals after different incubation times at room temperature (RT) and 37° C. Stability was defined as IC50 value of cgtx-544 after different incubation times at RT and 37° C. Blood plasma was prepared from fresh blood samples from healthy rats or humans. Heparin was added to fresh blood samples to prevent clogging. Plasma preparation was performed by centrifugation for 2 min at 2000×g at RT.
As the cgtx-544 peptide used in these experiments was incompletely folded, a higher IC50 than normal was determined.
To investigate the stability and activity in plasma the peptide was added to freshly prepared human and rat blood plasma at a final concentration of 2 μM. The samples were split into two aliquots and incubated at 37° C. and at room temperature (RT, 20° C.). For the electrophysiological analysis serial dilutions of the samples were prepared.

[3] = test system: antigen induced arthritis (AIA); experiment: Antigen induced arthritis (AIA) rat model, knee joint swelling; type: in vivo; conditions: for effect on knee swelling, curative treatment: 1 mg/kg BW i.v. daily, start on day 0 or day 1, vs vehicle
[4] = biological target: T2, Kv1.3 channels endogenously expressed in TEM cells (Homo sapiens, UniProt P22001); experiment: Block of Kv1.3 currents in isolated human TEM cells (Example 4); type: cell-based; conditions: incompletely folded peptide
T2 construct: endogenously expressed Kv1.3 channels in TEM cells; endogenous in cells
T2 sequence (P22001 whole entry): as above
Text: The insect cell line Spodoptera frugiperda (Sf21) was used in combination with a Baculovirus infection system for the heterologous expression of recombinant ion channels. Sf21 cells offer highly specific protein expression and correct posttranslational modifications resulting in functional channels with proposed comparability of electrophysiological parameters of ion channels in vivo. Therefore, it was necessary to compare the electrophysiological properties of the potassium selective ion channel Kv1.3 expressed in Sf21 cells and endogenously expressed Kv1.3 channels in TEM cells.
For the comparison of characteristic voltage dependent Kv1.3 channel activation a typical voltage protocol from −60 mV to +60 mV in 20 mV steps (activation pulse 200 ms) was used. Cells were clamped at a holding potential of −100 mV.
The maximal observed current, which clearly originates from Kv1.3 activity, and the applied voltage allows to assess the total conductivity of all Kv1.3 channels. Accordingly, the number of channels can be extracted using the known conductivity of a single Kv1.3 channel. […] By variation of the infection conditions, it is possible to control the expression level of Kv1.3 in Sf21 cells, according to the needs of the investigation. Under our standard conditions a maximal current of 2-5 nA, a conductance of 33-50 nS and a number of 2500-3800 channels per cell can be estimated. […]

Kv1.1 = biological target: T3, Kv1.1 (Homo sapiens, UniProt Q09470); experiment: Patch-clamp measurement of Kv1.1 channel inhibition (Example 1); type: cell-based; set-up: dose or concentration left out as unconfirmed
T3 construct: expressed in transfected cells; host or cells: Sf21 insect cells, baculovirus infection
T3 sequence (Q09470 whole entry): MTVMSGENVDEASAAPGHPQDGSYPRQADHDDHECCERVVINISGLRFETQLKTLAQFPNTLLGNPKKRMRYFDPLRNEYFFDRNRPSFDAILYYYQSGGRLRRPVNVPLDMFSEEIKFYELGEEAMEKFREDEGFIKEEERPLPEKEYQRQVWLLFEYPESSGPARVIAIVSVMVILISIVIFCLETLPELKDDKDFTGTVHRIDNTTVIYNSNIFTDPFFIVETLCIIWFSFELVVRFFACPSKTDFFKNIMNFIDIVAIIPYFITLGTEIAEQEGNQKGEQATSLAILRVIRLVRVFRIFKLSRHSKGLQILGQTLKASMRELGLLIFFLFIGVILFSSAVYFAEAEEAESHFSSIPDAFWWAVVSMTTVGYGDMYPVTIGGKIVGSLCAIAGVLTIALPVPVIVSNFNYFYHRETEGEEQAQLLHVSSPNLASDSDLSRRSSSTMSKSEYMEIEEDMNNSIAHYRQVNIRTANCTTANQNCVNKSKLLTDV
Method: FIGS. 1A-1F Measurement of Kv1.3 (FIGS. 1B and 1E), Kv1.5 (FIGS. 1C and 1F) and Kv1.1 (FIGS. 1A and 1D) channel inhibition by patch-clamp.
(§1) Peptides were dissolved at 1 μg/μl in 20 mM NaPO4 buffer pH 8.2 (1 mg in 1 ml folding buffer) and dialysed against the same buffer 3×1 L, Float-a-Lyzer cut off 500 Da (Spectrapor) at room temperature.
HsTx 1 binding was tested at various concentrations of e.g. 100 pM, 1 nM, 10 nM, 50 nM, 100 nM, 500 nM, and 1 μM—depending on the tested channel. Representative measurements for Kv 1.1, Kv1.3 and Kv1.5 are depicted in FIGS. 1 a), 1 b), and 1 c) respectively.
Cgtx-544 binding was tested at various concentrations of e.g. 1 nM, 10 nM, 50 nM, 100 nM, 1 μM, and 5 μM—depending on the tested channel. Representative measurements for Kv1.1, Kv1.3 and Kv1.5 are depicted in FIGS. 1 d), 1e), and 1) f, respectively.

[5] = biological target: T4, human Kv1.3 (hKv1.3) channel (Homo sapiens, UniProt P22001); experiment: Planar patch clamp (Port-A-Patch) of Kv1.3 potassium currents in Sf 21 cells (Example 1); type: cell-based
T4 construct: expressed in transfected cells; host or cells: Sf21 (Spodoptera frugiperda) insect cells, baculovirus infection
T4 sequence (P22001 whole entry): as the sequence (P22001 whole entry) above
Method: Potassium currents were measured by use of Spodoptera frugiperda (Sf 21) cells, which express the human Kv1.3 (hKv1.3) channel. The channel activity is induced upon membrane depolarization to voltages more positive than −40 mV. […] In Sf 21 cells hKv1.3 has an average current amplitude between 250 pA-5 nA at +40 mV.
1-3 days after infection potassium currents were recorded with the planar patch clamp technique, using the Port-A-Patch (Nanion Technologies GmbH). Ionic currents were activated by voltage steps to a depolarizing potential of +40 mV for 200 ms.
Sf 21 cells were cultured in Grace's insect cell medium supplemented with 10% FBS (Fetal Bovine Serum), 2 mM Glutamine, 1×Yeastolate (from 50× stock solution) and 0.1% Pluronic® F68 (BASF) to a cell density of 2-3×10^6 cells/ml.
External buffer: 160 mM NaCl • 4.5 mM KCl • 1 mM MgCl2 • 2 mM CaCl2 • 5 mM D-Glucose monohydrate • 10 mM HEPES/NaoH pH7.4
Internal buffer: 75 mM KCl • 10 mM NaCl • 70 mM K-Fluoride • 2 mM MgCl2 • 10 mM EGTA • 10 mM HEPES/KOH pH 7.2
as §1
HsTx 1 binding was tested at various concentrations of e.g. 100 pM, 1 nM, 10 nM, 50 nM, 100 nM, 500 nM, and 1 μM—depending on the tested channel. […]

Kv1.3 = Kv1.3 (Homo sapiens, UniProt P22001); experiment: Kv1.3 block with prolonged incubation times; type: cell-based
Chain of Kv1.3 (P22001 whole entry): as above

CC[C@H](C)[C@H](NC(=O)[C@@H](N)[C@@H](C)O)C(=O)N[C@H](C(=O)N[C@@H](CC(N)=O)C(=O)N[C@H](C(=O)N[C@@H](CCCCN)C(=O)N[C@H]1CSSC[C@@H]2NC(=O)[C@H](CCCCN)NC(=O)CNC(=O)[C@H](Cc3ccc(O)cc3)NC(=O)[C@@H]3CCCN3C(=O)[C@@H]3CSSC[C@@H](C(=O)O)NC(=O)[C@H](CCCNC(=N)N)NC(=O)[C@H](CC(N)=O)NC(=O)[C@@H]4CSSC[C@H](NC(=O)[C@@H]5CCCN5C(=O)[C@@H]5CCCN5C(=O)[C@H](CC(C)C)NC(=O)[C@H](CSSC[C@H](NC(=O)[C@H](CCCCN)NC(=O)[C@H](CCCNC(=N)N)NC(=O)[C@H](CC(N)=O)NC(=O)[C@H](CCSC)NC2=O)C(=O)N[C@@H](CCCCN)C(=O)N4)NC(=O)[C@H](CCC(N)=O)NC(=O)[C@H](CCCCN)NC(=O)[C@@H]2CCCN2C(=O)[C@H](CO)NC(=O)[C@H]([C@@H](C)O)NC1=O)C(=O)N[C@@H](CCCCN)C(=O)N[C@@H](C)C(=O)N[C@@H](CCC(N)=O)C(=O)N[C@@H]([C@@H](C)O)C(=O)NCC(=O)N3)C(C)C)[C@@H](C)CC [Compound 7]
Isoelectric point [1]: 9.29
reactivity of immunized animals on cgtx-544(Mix) (anti-peptide antibodies) (antibody formation; after 10 days under peptide therapy): no reactivity
suppression of B-lymphocytes and antibody formation (mBSA specific antibodies) (antibody formation; seven days after arthritis induction): does not seem to suppress B-lymphocytes and antibody formation
significant change in activity ([2]; 24 h, 37° C. and RT): could not be detected
activity after incubation in plasma ([2]; 48 h at RT): remained unchanged
activity after incubation in plasma ([2]; 14 days at 37° C.): no activity was detected
activity after incubation in plasma ([2]; 14 days at RT): unchanged activity
IC50 ([2]; read-out: IC50 on Kv1.3 after incubation in plasma, 48 h at 37° C.): 0.0373 µM
IC50 ([2]; read-out: IC50 on Kv1.3 in plasma, time point 0 h): 0.0209 µM
relative difference of knee swelling (normalized) ([3]; 1 mg/kg 1× daily i.v. from day −3): 0.18±0.05
reduction of knee swelling relative to the vehicle control group ([3]; 1 mg/kg 1× daily i.v., 24 h after arthritis induction): 60%
effect on knee swelling after second single injection ([3]; 1 mg/kg BW i.v. 1×d1 and 1×d4, listed as cgtx-544): reduced again to a significant value; also recorded: statistically significant reduction in knee swelling
effect on knee swelling, curative treatment ([3]; listed as cgtx-544): statistically significant reduction in knee swelling
effect on knee swelling, curative treatment ([3]; listed as cgtx-544(Mix)): clear reducing, and statistically significant effect; also recorded: significant reduction in knee joint swelling
knee joint swelling versus untreated (excipient) controls ([3]; 1 mg/kg BW i.v. from day −3): clear reduction of the knee joint swelling
knee diameters after seven days of treatment, curative ([3]; 1 mg/kg i.v. daily, start day 0 or day 1): nearly comparable to the non-induced, intra-individual control knee
maximal reduction of knee swelling, curative treatment ([3]; 1 mg/kg i.v. daily, therapy started on day 0 immediately after arthritis induction): 40%
maximal reduction of knee swelling, curative treatment ([3]; 1 mg/kg i.v. daily, therapy started on day 1): 58%
effect on knee swelling, preventive treatment ([3]; 0.1, 1 and 5 mg/kg BW i.v. daily, day −3 to day 6, vs vehicle, listed as cgtx-544): clear reducing, dose dependent and statistically significant effect; also recorded: statistically significant reduction in knee swelling
knee diameters after seven days of treatment, preventive ([3]; daily i.v. from day −3): nearly comparable to the non-induced, intra-individual control knee
maximal reduction of knee swelling, preventive treatment ([3]; daily i.v. from day −3): 70%
effect on knee swelling after single injection ([3]; single i.v. injection 1 mg/kg BW on day 1 (1×d1), 24 h after application, listed as cgtx-544, 1 mg/kg): clear and statistically significant reduction of knee swelling; also recorded: statistically significant reduction in knee swelling; also recorded: strong and sustained effect
Kv1.3 block on human TEM cells compared with Kv1.3 transfected Sf21 cells [4]: the same values
block of Kv1.1 (Kv1.1): about 22%
selectivity for Kv1.3 vs. Kv1.1 compared to HsTx 1 [5]: higher selectivity
IC50 ([5]; read-out: IC50 on Kv1.3 before the start of the plasma stability experiment, incompletely folded peptide, n=5 cells, Sf21): 0.0461 µM
block of Kv1.3 currents (Kv1.3; long incubation times, i.e. 15 min): 60%
block of Kv1.3 currents (Kv1.3; short incubation times): 20%
